Counter-ions that a name gives are not always drawn. Like-named read-outs stand apart in the source and are kept apart here.
Experiments:
[1] = Determination of compound remaining in feces; type: in vivo, rat; conditions: 0.1 mg/kg oral gavage; for recovery in 72-hour fecal samples: three rats; for dose excreted: Sprague-Dawley, rat, faeces, po, 0.1 mg/kg, read-out: % Recovery ± SD from 72-hour fecal samples
Protocol: Sprague-Dawley rats were orally gavaged with test article. A low dose of compound (0.1 mg/kg) was selected so that feces would remain solid and practical to collect. For both Examples 202 and 203, three rats were dosed, and following dosage of compounds, the rats were placed in metabolic cages for 72 hours. After 72 hours, fecal samples were recovered and dried for 48 hours. Dried fecal samples were ground to a powdered from, and for each rat, 10 replicates of 50 mg samples were extracted with acetonitrile. Insoluble materials were removed by centrifugation and supernatants analyzed by LC/MS/MS and compared against a standard curve to determine compound concentration. The amount of compound actually dosed was determined by LC/MS/MS analysis of the dosing solutions. The total amount of compound present in the 72-hour fecal samples was compared to the total amount of compound dosed, and reported as percentage of total dose recovered.

human NHE3 = molecular target: T1, human NHE3 (Homo sapiens, UniProt P48764); assay: Cell-based assay of NHE-3 activity (pre-incubation inhibition), human; conditions: human Preincubation assay; for IC50: PS120 fibroblasts expressing human NHE3 and NHERF2, 0-30 μM test compound
T1 construct: host or cells: PS120 fibroblasts
T1 sequence (P48764 26-834): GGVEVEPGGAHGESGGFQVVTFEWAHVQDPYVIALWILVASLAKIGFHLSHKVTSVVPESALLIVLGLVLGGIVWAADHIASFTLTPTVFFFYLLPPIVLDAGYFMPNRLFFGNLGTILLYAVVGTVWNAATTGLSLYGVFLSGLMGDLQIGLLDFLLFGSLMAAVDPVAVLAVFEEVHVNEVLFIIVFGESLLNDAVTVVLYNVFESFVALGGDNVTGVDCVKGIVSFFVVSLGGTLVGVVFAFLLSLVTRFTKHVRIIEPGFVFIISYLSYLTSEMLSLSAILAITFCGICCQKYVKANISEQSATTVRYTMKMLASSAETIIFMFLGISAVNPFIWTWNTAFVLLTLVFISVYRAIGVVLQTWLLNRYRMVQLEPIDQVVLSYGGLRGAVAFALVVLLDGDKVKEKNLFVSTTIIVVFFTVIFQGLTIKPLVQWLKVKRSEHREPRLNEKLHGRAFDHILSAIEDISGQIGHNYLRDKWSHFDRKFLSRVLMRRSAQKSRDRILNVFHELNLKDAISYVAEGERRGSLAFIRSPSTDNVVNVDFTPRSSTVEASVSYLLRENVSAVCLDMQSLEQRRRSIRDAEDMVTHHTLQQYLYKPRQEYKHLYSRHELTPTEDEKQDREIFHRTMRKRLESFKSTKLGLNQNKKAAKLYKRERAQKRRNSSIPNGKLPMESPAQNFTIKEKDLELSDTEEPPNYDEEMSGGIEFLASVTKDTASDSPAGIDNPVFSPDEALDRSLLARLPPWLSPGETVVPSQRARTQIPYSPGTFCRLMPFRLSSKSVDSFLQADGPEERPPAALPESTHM
T1 sequence (Q99653 2-195 partner limits assumed): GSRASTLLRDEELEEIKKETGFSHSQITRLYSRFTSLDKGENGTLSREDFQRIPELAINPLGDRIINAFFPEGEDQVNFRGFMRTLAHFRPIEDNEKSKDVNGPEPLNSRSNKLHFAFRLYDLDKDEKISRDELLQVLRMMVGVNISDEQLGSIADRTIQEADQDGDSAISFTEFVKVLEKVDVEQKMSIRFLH
Protocol: Rat and human NHE-3-mediated Na^+-dependent H^+ antiport was measured using a modification of the pH sensitive dye method originally reported by Paradiso (Proc. Natl. Acad. Sci. USA. (1984) 81(23): 7436-7440). PS120 fibroblasts stably expressing human NHE3 and NHERF2 were obtained from Mark Donowitz (Baltimore, Md.). Opossum kidney (OK) cells were obtained from the ATCC and propagated per their instructions. The rat NHE-3 gene (GenBank M85300) was introduced into OK cells via electroporation, and cells were seeded into 96 well plates and grown overnight. Medium was aspirated from the wells then incubated for 30 min at 37° C. with NH4Cl-HEPES buffer (20 mM NH4Cl, 80 mM NaCl, 50 mM HEPES, 5 mM KCl, 2 mM CaCl2, 1 mM MgCl2, pH 7.4) containing 5 μM BCECF-AM. Cells were washed once with Ammonium free, Na^+-free HEPES (100 mM choline, 50 mM HEPES, 10 mM glucose, 5 mM KCl, 2 mM CaCl2, 1 mM MgCl2, pH 7.4) and incubated in the same buffer for 10 minutes at room temperature to lower intracellular pH with 0-30 μM test compound. […] Changes in intracellular pH were monitored using a FLIPR Tetra® (Molecular Devices, Sunnyvale, Calif.) by excitation at λex 439 to 505 nm, and measuring BCECF fluorescence at λem 538 nm. The initial rate of the fluorescence ratio change was used as a measure of NHE-mediated Na^+/H^+ activity, and reported as the change in fluorescence ratio per minute.

[2] = test system: gastrointestinal motility; assay: Restoration of gastrointestinal motility in opioid induced constipation (loperamide); type: in vivo, mice; conditions: 15 mg/kg oral gavage, loperamide s.c., Evans Blue dye front after 30 minutes
[3] = test system: absorption of sodium from the intestinal lumen; assay: Inhibition of intestinal sodium absorption in mice; type: in vivo, mouse; conditions: CD-1 mice, 15 mg/kg oral gavage twice daily for 3 days
[4] = day 3, normalized to dietary sodium intake

Question: With `CN1Cc2c(Cl)cc(Cl)cc2[C@H](c2cccc(S(=O)(=O)NCCOCCOCCNC(=O)NCCCCNC(=O)NCCOCCOCCNS(=O)(=O)c3cccc([C@@H]4CN(C)Cc5c(Cl)cc(Cl)cc54)c3)c2)C1` (single isomer, unassigned) [Example 202, (S or R)—N,N′-(10,17-dioxo-3,6,21,24-tetraoxa-9,11,16,18-tetraazahexacosane-1,26-diyl)bis(3-((S)-6,8-dichloro-2-methyl-1,2,3,4-tetrahydroisoquinolin-4-yl)benzenesulfonamide) bis-hydrochloride salt] as the compound, how does the “recovery in 72-hour fecal samples” value [1] read?
Answer: The value was “near quantitative recovery”.

Question: What about the dose excreted ([1]; Rat 1) of the same compound?
Answer: The dose excreted was 93.8 ± 11.8%.

Question: What about the dose excreted ([1]; Rat 2) of the same compound?
Answer: Its dose excreted is 90.5 ± 5.5%.

Question: And the dose excreted ([1]; Rat 3)?
Answer: Its dose excreted is 92.4 ± 10.6%.

Question: What about the “% inhibition” value (human NHE3) of the same compound?
Answer: Its value is “C (>70%)”.

Question: And the IC50 (human NHE3)?
Answer: The IC50 was under 100 nM.

Question: What about the “% Restoration of Transit” value [2] of the same compound?
Answer: The value was “C (>40%)”.

Question: Which results are given for `CN1Cc2c(Cl)cc(Cl)cc2[C@H](c2cccc(S(=O)(=O)NCCOCCOCCNC(=O)Nc3ccc(NC(=O)NCCOCCOCCNS(=O)(=O)c4cccc([C@@H]5CN(C)Cc6c(Cl)cc(Cl)cc65)c4)cc3)c2)C1` (single isomer, unassigned) [Example 203, (S or R)—N,N′-(2,2′-(2,2′-(2,2′-(1,4-phenylenebis(azanediyl))bis(oxomethylene)bis(azanediyl)bis(ethane-2,1-diyl))bis(oxy)bis(ethane-2,1-diyl))bis(oxy)bis(ethane-2,1-diyl))bis(3-((S or R)-6,8-dichloro-2-methyl-1,2,3,4-tetrahydroisoquinolin-4-yl)benzenesulfonamide) bis-hydrochloride salt]?
Answer: recovery in 72-hour fecal samples [1]: near quantitative recovery; dose excreted ([1]; Rat 1): 100 ± 6.7%; dose excreted ([1]; Rat 2): 75.8 ± 8.2%; dose excreted ([1]; Rat 3): 104 ± 7.1%; % inhibition (human NHE3): C (>70%); IC50 (human NHE3): < 100 nM; Fecal fluid content (Δ from vehicle) ([3]; day 3): C (>10); Fecal Na Excretion (% of vehicle) [3, 4]: C (>200%); Urinary Na Excretion (% of vehicle) [3, 4]: C (<50%)
